Values joined by “and” are separate entries in the source; they are usually repeats but may differ in a detail not shown here. Identical values can stand only once. Inconclusive results and toxic doses are left out. Rule for the calls: active = survival T/C of 150% or more; inactive = T/C below 125% in these data.
System: C57BL/6 mice, intracerebral ependymoblastoma, median survival T/C
Assay: NCI In Vivo Anticancer Drug Screen. Data for tumor model Ependymoblastoma (intracerebral) in C57BL/6 mice
Details: endpoint: median survival time, higher = longer survival
Method: The antitumor activity of compounds was measured in mice bearing transplantable tumors. Survival or tumor size were measured and the results are expressed as the measurement made in the treated group (T) divided by the measurement made in the vehicle treated control group (C). The tumor model used in this assay is Ependymoblastoma (intracerebral) in C57BL/6 mice

Measured: T/C

COC(=O)[C@@]12OC[C@]34[C@H]([C@@H](O)[C@@H]1O)[C@@]1(C)CC(=O)C(O)=C(C)[C@@H]1C[C@H]3OC(=O)[C@H](OC(=O)/C=C(\C)C(C)C)[C@@H]24
inactive: dose: 0.03 mg/kg/injection, schedule: Q01DX005 (ip), vehicle: Klucel (hydroxypropylcellulose) (HPC) 92 % of control and 110 % of control | dose: 0.06 mg/kg/injection, schedule: Q01DX005 (ip), vehicle: Klucel (hydroxypropylcellulose) (HPC) 109 % of control and 116 % of control | dose: 0.12 mg/kg/injection, schedule: Q01DX005 (ip), vehicle: Klucel (hydroxypropylcellulose) (HPC) 101 % of control and 107 % of control | dose: 0.25 mg/kg/injection, schedule: Q01DX005 (ip), vehicle: Klucel (hydroxypropylcellulose) (HPC) 104 % of control and 109 % of control | dose: 0.5 mg/kg/injection, schedule: Q01DX005 (ip), vehicle: Klucel (hydroxypropylcellulose) (HPC) 93 % of control and 117 % of control | dose: 1.0 mg/kg/injection, schedule: Q01DX005 (ip), vehicle: Klucel (hydroxypropylcellulose) (HPC) 95 % of control | dose: 31.2 micrograms/kg/injection, schedule: Q01DX005 (ip), vehicle: saline + alcohol 86 % of control | dose: 62.5 micrograms/kg/injection, schedule: Q01DX005 (ip), vehicle: saline + alcohol 99 % of control | dose: 125.0 micrograms/kg/injection, schedule: Q01DX005 (ip), vehicle: saline + alcohol 94 % of control | dose: 250.0 micrograms/kg/injection, schedule: Q01DX005 (ip), vehicle: saline + alcohol 108 % of control | dose: 500.0 micrograms/kg/injection, schedule: Q01DX005 (ip), vehicle: saline + alcohol 87 % of control | dose: 1000.0 micrograms/kg/injection, schedule: Q01DX005 (ip), vehicle: saline + alcohol 99 % of control

COc1cc2cc3c4cc(OC)c(OC)cc4cc[n+]3c(C)c2cc1OC (tested in a mixture with another compound)
inactive: dose: 8.0 mg/kg/injection, schedule: Q01DX001 (ip), vehicle: saline 98 % of control | dose: 16.0 mg/kg/injection, schedule: Q01DX001 (ip), vehicle: saline 91 % of control | dose: 16.0 mg/kg/injection, schedule: Q#A X002 (ip), vehicle: saline 94 % of control | dose: 32.0 mg/kg/injection, schedule: Q01DX001 (ip), vehicle: saline 90 % of control | dose: 32.0 mg/kg/injection, schedule: Q01DX005 (ip), vehicle: Klucel (hydroxypropylcellulose) (HPC) 89 % of control | dose: 32.0 mg/kg/injection, schedule: Q#A X002 (ip), vehicle: saline 97 % of control and 105 % of control | dose: 64.0 mg/kg/injection, schedule: Q01DX001 (oral), vehicle: saline 100 % of control and 104 % of control | dose: 64.0 mg/kg/injection, schedule: Q01DX005 (ip), vehicle: Klucel (hydroxypropylcellulose) (HPC) 103 % of control and 107 % of control | dose: 64.0 mg/kg/injection, schedule: Q#A X002 (ip), vehicle: saline 111 % of control | dose: 128.0 mg/kg/injection, schedule: Q01DX001 (oral), vehicle: saline 100 % of control and 103 % of control | dose: 128.0 mg/kg/injection, schedule: Q01DX005 (ip), vehicle: Klucel (hydroxypropylcellulose) (HPC) 118 % of control and 121 % of control | dose: 128.0 mg/kg/injection, schedule: Q#A X002 (ip), vehicle: saline 103 % of control and 106 % of control | dose: 256.0 mg/kg/injection, schedule: Q01DX001 (ip), vehicle: saline 87 % of control | dose: 256.0 mg/kg/injection, schedule: Q01DX001 (oral), vehicle: saline 88 % of control and 103 % of control | dose: 256.0 mg/kg/injection, schedule: Q01DX005 (ip), vehicle: Klucel (hydroxypropylcellulose) (HPC) 118 % of control | dose: 256.0 mg/kg/injection, schedule: Q#A X002 (ip), vehicle: saline 87 % of control and 98 % of control | dose: 512.0 mg/kg/injection, schedule: Q01DX001 (oral), vehicle: saline 100 % of control and 102 % of control | dose: 1024.0 mg/kg/injection, schedule: Q01DX001 (oral), vehicle: saline 100 % of control and 107 % of control

Source: PubChem BioAssay AID222 (DTP/NCI, 2004)
